From patent publication US8435939B2, “Polypeptide anti-HIV agent containing the same” (priority 2000, dated 2013)
Where two headings read alike, the source gives them in different places. Where a SMILES comes first, the peptide text is derived from it. Bridges are numbered along the chain shown (N, C = ends). [ ]: non-standard residue; d: D form. 2Nal = N[C@@H](Cc1ccc2ccccc2c1)C(=O)O; Cit = NC(=O)NCCC[C@H](N)C(=O)O

Key:
HIV-1 (IIIB) strain = test: Anti-HIV activity: inhibition of MT-4 cell death by HIV infection (MTT method); format: cell-based; details: for EC50: MT-4 CD4+ T cells infected by HIV-1 (IIIB), 37° C., 5 days, MTT, average of at least three measurements, read-out: EC50 (concentration where MT-4 cell death by HIV infection is inhibited by 50%)
Experimental: (§1) HIV-1 (IIIB) strain obtained from MOLT/HIV-1 (IIIB) cell previously infected by HIV-1 was used. The polypeptide of the present invention was added to MT-4 CD4^+ T cells infected by HIV in various kinds of concentrations, and a number of living cells after culturing at 37° C. for 5 days was determined by using a 3′-(4,5-dimethylthiazol-2-yl)-2,5-diphenyltetrazolinium bromide (MTT) method. Anti-HIV activity is shown by a concentration (EC50 value), where MT-4 cell death by HIV infection is inhibited by 50%. Cytotoxicity of the peptide according to the present invention was shown by a 50% survival concentration (Test I: CC50 value) by culturing virus-uninfected MT-4 cells with the polypeptide according to the present invention in various concentrations, and determining a number of living cells by the MTT method. Moreover, a number of living cells of human peripheral blood mononuclear cells (monocyte) (PBMC) was determined by trypan blue dyeing method, and shown by a 50% survival concentration (Test II: CC50 value). Respective ratios of the CC50 value and the EC50 value were shown as a selective index (SI). Obtained values were summarized in Table 3 using the conventionally known polypeptides T134 and T140, and an anti-HIV compound: 3′-azido-2′,3′-dideoxythymidine (AZT) used as a medicine as a control anti-HIV agent.

[1] = tested on: human peripheral blood mononuclear cells (PBMC); test: Cytotoxicity Test II: human PBMC, trypan blue dyeing method; format: cell-based; details: selective index, PBMC CC50 over anti-HIV EC50
[2] = as above; format: cell-based; details: human PBMC, trypan blue dyeing method, read-out: CC50 (Test II), 50% survival concentration
[3] = tested on: virus-uninfected MT-4 cells; test: Cytotoxicity Test I: virus-uninfected MT-4 cells, MTT method; format: cell-based; details: for SI: CC50 (Test I)/EC50: selective index, MT-4 CC50 over anti-HIV EC50
Experimental: as §1

[4] = as above; format: cell-based; details: human, virus-uninfected MT-4 cells, MTT method, read-out: CC50 (Test I), 50% survival concentration
Experimental: as §1

in vitro = in vitro ADME, cat; details: serum
Experimental: T140 or TC14012 was dissolved in cat serum (100 μL/100 μL Water) in an amount of 100 nmol, and maintained at 37° C. Each 8 μL of the respective samples were collected after 0 hour, 1 hour, 2 hours, 5 hours and 16 hours, and analyzed by reverse phase HPLC using 16% acetonitrile.

| SMILES | EC50 (HIV-1 (IIIB) strain; Human immunodeficiency virus 1, MT4, 120 h) [µM] | SI: CC50 (Test II)/EC50 [1] | CC50 ([2]; peripheral blood mononuclear cells (PBMC)) [µM] | SI: CC50 (Test I)/EC50 [3] | CC50 [4] [µM] | metabolised at 16 h, 0.5 mM (in vitro) [%] | CC50 [2] [µM] | CC50 ([4]; MT-4 cells (virus-uninfected)) [µM] | EC50 (HIV-1 (IIIB) strain) [µM] | anti-HIV activity in words, compared with T140 (HIV-1 (IIIB) strain; conclusion drawn from Table 3) | cytotoxicity in words, compared with conventional T134/T140 ([3]; conclusion drawn from Table 3) |
| --- | --- | --- | --- | --- | --- | --- | --- | --- | --- | --- | --- |
| Cc1cn([C@H]2C[C@H](N=[N+]=[N-])[C@@H](CO)O2)c(=O)[nH]c1=O [AZT, 3′-azido-2′,3′-dideoxythymidine, reference compound] | 0.048 | <410 | < 20 | 4000 | 190 | – | – | – | – | – | – |
| NCCCC[C@@H]1NC(=O)[C@H](CCCN=C(N)N)NC(=O)[C@H](Cc2ccc(O)cc2)NC(=O)[C@@H](NC(=O)[C@H](Cc2ccc3ccccc3c2)NC(=O)[C@H](CCCN=C(N)N)NC(=O)[C@@H](N)CCCN=C(N)N)CSSC[C@@H](C(=O)N[C@@H](CCCN=C(N)N)C(=O)O)NC(=O)[C@H](CCCNC(N)=O)NC(=O)[C@H](CCCN=C(N)N)NC(=O)[C@H](Cc2ccc(O)cc2)NC(=O)[C@@H]2CCCN2C(=O)[C@@H](CCCCN)NC1=O [Compound T140, H-Arg-Arg-Nal-Cys-Tyr-Arg-Lys-DLys-Pro-Tyr-Arg-Cit-Cys-Arg-OH, reference compound] (H-RR[2Nal]CYRK[dK]PYR[Cit]CR-OH; disulfide 4-13) | – | 29000 | – | >>300 | – | ~70 | 96 | > 1 | – | – | – |
| NCCCC[C@H]1NC(=O)[C@H](CCCNC(N)=O)NC(=O)[C@H](CCCN=C(N)N)NC(=O)[C@H](Cc2ccc(O)cc2)NC(=O)[C@@H](NC(=O)[C@H](Cc2ccc3ccccc3c2)NC(=O)[C@H](CCCN=C(N)N)NC(=O)[C@@H](N)CCCN=C(N)N)CSSC[C@@H](C(=O)N[C@@H](CCCN=C(N)N)C(=O)O)NC(=O)[C@H](CCCNC(N)=O)NC(=O)[C@H](CCCN=C(N)N)NC(=O)[C@H](Cc2ccc(O)cc2)NC(=O)[C@@H]2CCCN2C1=O [TC14004, H-Arg-Arg-Nal-Cys-Tyr-Arg-Cit-DLys-Pro-Tyr-Arg-Cit-Cys-Arg-OH] (H-RR[2Nal]CYR[Cit][dK]PYR[Cit]CR-OH; disulfide 4-13) | – | 16000 | – | >5000 | – | – | 270 | > 80 | – | – | – |
| NCCCC[C@@H]1NC(=O)[C@H](CCCN=C(N)N)NC(=O)[C@H](Cc2ccc(O)cc2)NC(=O)[C@@H](NC(=O)[C@H](Cc2ccc3ccccc3c2)NC(=O)[C@H](CCCN=C(N)N)NC(=O)[C@@H](N)CCCN=C(N)N)CSSC[C@@H](C(=O)N[C@@H](CCCN=C(N)N)C(=O)O)NC(=O)[C@H](CCCNC(N)=O)NC(=O)[C@H](CCCN=C(N)N)NC(=O)[C@H](Cc2ccc(O)cc2)NC(=O)[C@@H]2CCCN2C(=O)[C@@H](CCCNC(N)=O)NC1=O [TC14005, H-Arg-Arg-NaI-Cys-Tyr-Arg-Lys-DCit-Pro-Tyr-Arg-Cit-Cys-Arg-OH] | – | 69000 | – | >20000 | – | – | 280 | > 80 | 0.004 | substantially the same anti-HIV activity as that of the conventionally known T140 | cytotoxicity is markedly lowered |
| NCCCC[C@@H]1NC(=O)[C@H](CCCN=C(N)N)NC(=O)[C@H](Cc2ccc(O)cc2)NC(=O)[C@@H](NC(=O)[C@H](Cc2ccc3ccccc3c2)NC(=O)[C@H](CCCN=C(N)N)NC(=O)[C@@H](N)CCCN=C(N)N)CSSC[C@@H](C(=O)N[C@@H](CCCN=C(N)N)C(=O)O)NC(=O)[C@H](CCCNC(N)=O)NC(=O)[C@H](CCCNC(N)=O)NC(=O)[C@H](Cc2ccc(O)cc2)NC(=O)[C@@H]2CCCN2C(=O)[C@@H](CCCCN)NC1=O [TC14006, H-Arg-Arg-Nal-Cys-Tyr-Arg-Lys-DLys-Pro-Tyr-Cit-Cit-Cys-Arg-OH] (H-RR[2Nal]CYRK[dK]PY[Cit][Cit]CR-OH; disulfide 4-13) | – | 20000 | – | >5300 | – | – | 310 | > 80 | – | – | – |
